According to the supplement of paper PMC10307832:

Columns and labels:
Assay in all cases: relative viability (nuclei count vs DMSO), 5 days (fraction); higher = more cells survive
kb NB 142-70 + Dasatinib = compound: C1CSC2=C(C(=O)N1)SC3=C2C=C(C=C3)O [kb NB 142-70] + Cc1nc(Nc2ncc(C(=O)Nc3c(C)cccc3Cl)s2)cc(N2CCN(CCO)CC2)n1 [Dasatinib] (partner 0.075 µM)
Procedure, shortened: (§1)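 The day after seeding in 1536-well plates, lung cancer cell lines were treated by pin tool with a single drug, or with a fixed anchor-drug dose together with five library-drug doses (not always all listed) in √10 steps. After 5 days, a combined fix-and-stain solution (final 0.05% Triton X-100, 1% formaldehyde, 1 ug/ml Hoechst) was added. Nuclei counted on 4× images gave relative viability as treated counts over vehicle counts, reported as the median of duplicate plates.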

[1] = compound: C1CSC2=C(C(=O)N1)SC3=C2C=C(C=C3)O [kb NB 142-70] + Nc1nc2[nH]cc(CCc3ccc(C(=O)N[C@@H](CCC(=O)O)C(=O)O)cc3)c2c(=O)[nH]1 [Pemetrexed] (partner 0.2 µM)
Procedure, shortened: as §1

kb NB 142-70 + Olaparib = compound: C1CSC2=C(C(=O)N1)SC3=C2C=C(C=C3)O [kb NB 142-70] + O=C(c1cc(Cc2n[nH]c(=O)c3ccccc23)ccc1F)N1CCN(C(=O)C2CC2)CC1 [Olaparib] (partner 8 µM)
Procedure, shortened: as §1

[2] = compound: NCC(=O)Nc1ccc(-n2nc(C(F)(F)F)cc2-c2ccc3c(ccc4ccccc43)c2)cc1 + CS(=O)(=O)CCNCc1ccc(-c2ccc3ncnc(Nc4ccc(OCc5cccc(F)c5)c(Cl)c4)c3c2)o1 [Lapatinib] (partner 2 µM)
Procedure, shortened: as §1

[3] = compound: NCC(=O)Nc1ccc(-n2nc(C(F)(F)F)cc2-c2ccc3c(ccc4ccccc43)c2)cc1 + C[C@@H](Oc1cc(-c2cnn(C3CCNCC3)c2)cnc1N)c1c(Cl)ccc(F)c1Cl [Crizotinib] (partner 1 µM)
Procedure, shortened: as §1

Cell Line SW 1573 has a relative viability (kb NB 142-70 + Dasatinib; first compound 0.1 µM) of 0.491, a relative viability (kb NB 142-70 + Dasatinib; first compound 1 µM) of 0.458 and a relative viability (kb NB 142-70 + Dasatinib; first compound 3.162 µM) of 0.188. It also gave a relative viability ([1]; first compound 0.1 µM) of 0.81, a relative viability ([1]; first compound 1 µM) of 0.744 and a relative viability ([1]; first compound 3.162 µM) of 0.36. For the same cell line, the relative viability (kb NB 142-70 + Olaparib; first compound 0.1 µM) was 0.421, the relative viability (kb NB 142-70 + Olaparib; first compound 1 µM) was 0.305 and the relative viability (kb NB 142-70 + Olaparib; first compound 3.162 µM) was 0.177. It also gave a relative viability ([2]; first compound 0.02 µM) of 1.17, a relative viability ([2]; first compound 0.06325 µM) of 1 and a relative viability ([2]; first compound 0.2 µM) of 1.17. It also gave a relative viability ([2]; first compound 0.6325 µM) of 0.978, a relative viability ([2]; first compound 2 µM) of 1.08 and a relative viability ([3]; first compound 0.02 µM) of 0.756. For the same cell line, the relative viability ([3]; first compound 0.06325 µM) was 0.756, the relative viability ([3]; first compound 0.2 µM) was 0.837 and the relative viability ([3]; first compound 0.6325 µM) was 0.848. The relative viability ([3]; first compound 2 µM) was 0.911.
NCI-H2347 showed a relative viability (kb NB 142-70 + Dasatinib; first compound 0.1 µM) of 0.311, a relative viability (kb NB 142-70 + Dasatinib; first compound 1 µM) of 0.349 and a relative viability (kb NB 142-70 + Dasatinib; first compound 3.162 µM) of 0.279. The relative viability ([1]; first compound 0.1 µM) was 0.453, the relative viability ([1]; first compound 1 µM) was 0.449 and the relative viability ([1]; first compound 3.162 µM) was 0.426. The relative viability (kb NB 142-70 + Olaparib; first compound 0.1 µM) was 0.634, the relative viability (kb NB 142-70 + Olaparib; first compound 1 µM) was 0.632 and the relative viability (kb NB 142-70 + Olaparib; first compound 3.162 µM) was 0.568. For the same cell line, the relative viability ([2]; first compound 0.02 µM) was 0.883, the relative viability ([2]; first compound 0.06325 µM) was 0.939 and the relative viability ([2]; first compound 0.2 µM) was 0.955. For the same cell line, the relative viability ([2]; first compound 0.6325 µM) was 1.03, the relative viability ([2]; first compound 2 µM) was 0.884 and the relative viability ([3]; first compound 0.02 µM) was 0.755. For the same cell line, the relative viability ([3]; first compound 0.06325 µM) was 0.768, the relative viability ([3]; first compound 0.2 µM) was 0.822 and the relative viability ([3]; first compound 0.6325 µM) was 0.813. For the same cell line, the relative viability ([3]; first compound 2 µM) was 0.688.
Cell Line NCI-H2009 has a relative viability (kb NB 142-70 + Dasatinib; first compound 0.1 µM) of 0.321, a relative viability (kb NB 142-70 + Dasatinib; first compound 1 µM) of 0.284 and a relative viability (kb NB 142-70 + Dasatinib; first compound 3.162 µM) of 0.155. It also gave a relative viability ([1]; first compound 0.1 µM) of 1.05, a relative viability ([1]; first compound 1 µM) of 1.09 and a relative viability ([1]; first compound 3.162 µM) of 0.977. The relative viability (kb NB 142-70 + Olaparib; first compound 0.1 µM) was 0.721, the relative viability (kb NB 142-70 + Olaparib; first compound 1 µM) was 0.724 and the relative viability (kb NB 142-70 + Olaparib; first compound 3.162 µM) was 0.611. For the same cell line, the relative viability ([2]; first compound 0.02 µM) was 0.872, the relative viability ([2]; first compound 0.06325 µM) was 0.948 and the relative viability ([2]; first compound 0.2 µM) was 0.868. For the same cell line, the relative viability ([2]; first compound 0.6325 µM) was 0.935, the relative viability ([2]; first compound 2 µM) was 0.958 and the relative viability ([3]; first compound 0.02 µM) was 1.06. It also gave a relative viability ([3]; first compound 0.06325 µM) of 1.03, a relative viability ([3]; first compound 0.2 µM) of 1.07 and a relative viability ([3]; first compound 0.6325 µM) of 1.09. The relative viability ([3]; first compound 2 µM) was 1.04.
With HCC-15 the relative viability (kb NB 142-70 + Dasatinib; first compound 0.1 µM) was 0.638, the relative viability (kb NB 142-70 + Dasatinib; first compound 1 µM) was 0.574 and the relative viability (kb NB 142-70 + Dasatinib; first compound 3.162 µM) was 0.459. The relative viability ([1]; first compound 0.1 µM) was 0.227, the relative viability ([1]; first compound 1 µM) was 0.238 and the relative viability ([1]; first compound 3.162 µM) was 0.227. The relative viability (kb NB 142-70 + Olaparib; first compound 0.1 µM) was 0.722, the relative viability (kb NB 142-70 + Olaparib; first compound 1 µM) was 0.748 and the relative viability (kb NB 142-70 + Olaparib; first compound 3.162 µM) was 0.752. For the same cell line, the relative viability ([2]; first compound 0.02 µM) was 0.847, the relative viability ([2]; first compound 0.06325 µM) was 0.876 and the relative viability ([2]; first compound 0.2 µM) was 0.839. The relative viability ([2]; first compound 0.6325 µM) was 0.821, the relative viability ([2]; first compound 2 µM) was 0.812 and the relative viability ([3]; first compound 0.02 µM) was 0.817. It also gave a relative viability ([3]; first compound 0.06325 µM) of 0.808, a relative viability ([3]; first compound 0.2 µM) of 0.795 and a relative viability ([3]; first compound 0.6325 µM) of 0.773. For the same cell line, the relative viability ([3]; first compound 2 µM) was 0.768.
COR-L23 was tested, and the relative viability (kb NB 142-70 + Dasatinib; first compound 0.1 µM) was 0.529, the relative viability (kb NB 142-70 + Dasatinib; first compound 1 µM) was 0.526 and the relative viability (kb NB 142-70 + Dasatinib; first compound 3.162 µM) was 0.311. For the same cell line, the relative viability ([1]; first compound 0.1 µM) was 0.183, the relative viability ([1]; first compound 1 µM) was 0.201 and the relative viability ([1]; first compound 3.162 µM) was 0.196. It also gave a relative viability (kb NB 142-70 + Olaparib; first compound 0.1 µM) of 0.344, a relative viability (kb NB 142-70 + Olaparib; first compound 1 µM) of 0.442 and a relative viability (kb NB 142-70 + Olaparib; first compound 3.162 µM) of 0.263. It also gave a relative viability ([2]; first compound 0.02 µM) of 0.97, a relative viability ([2]; first compound 0.06325 µM) of 0.997 and a relative viability ([2]; first compound 0.2 µM) of 1.2. It also gave a relative viability ([2]; first compound 0.6325 µM) of 0.938, a relative viability ([2]; first compound 2 µM) of 0.659 and a relative viability ([3]; first compound 0.02 µM) of 0.825. The relative viability ([3]; first compound 0.06325 µM) was 0.638, the relative viability ([3]; first compound 0.2 µM) was 0.823 and the relative viability ([3]; first compound 0.6325 µM) was 0.703. For the same cell line, the relative viability ([3]; first compound 2 µM) was 0.631.
Cell Line HCC-78 has a relative viability (kb NB 142-70 + Dasatinib; first compound 0.1 µM) of 0.426, a relative viability (kb NB 142-70 + Dasatinib; first compound 1 µM) of 0.388 and a relative viability (kb NB 142-70 + Dasatinib; first compound 3.162 µM) of 0.31. The relative viability ([1]; first compound 0.1 µM) was 0.896, the relative viability ([1]; first compound 1 µM) was 0.907 and the relative viability ([1]; first compound 3.162 µM) was 0.899. The relative viability (kb NB 142-70 + Olaparib; first compound 0.1 µM) was 0.791, the relative viability (kb NB 142-70 + Olaparib; first compound 1 µM) was 0.773 and the relative viability (kb NB 142-70 + Olaparib; first compound 3.162 µM) was 0.83. For the same cell line, the relative viability ([2]; first compound 0.02 µM) was 0.819, the relative viability ([2]; first compound 0.06325 µM) was 1.04 and the relative viability ([2]; first compound 0.2 µM) was 0.745. The relative viability ([2]; first compound 0.6325 µM) was 0.742, the relative viability ([2]; first compound 2 µM) was 0.342 and the relative viability ([3]; first compound 0.02 µM) was 0.361. The relative viability ([3]; first compound 0.06325 µM) was 0.363, the relative viability ([3]; first compound 0.2 µM) was 0.346 and the relative viability ([3]; first compound 0.6325 µM) was 0.337. The relative viability ([3]; first compound 2 µM) was 0.348.
Cell Line NCI-H2087 has a relative viability (kb NB 142-70 + Dasatinib; first compound 0.1 µM) of 0.907, a relative viability (kb NB 142-70 + Dasatinib; first compound 1 µM) of 1.04 and a relative viability (kb NB 142-70 + Dasatinib; first compound 3.162 µM) of 0.608. For the same cell line, the relative viability ([1]; first compound 0.1 µM) was 0.569, the relative viability ([1]; first compound 1 µM) was 0.681 and the relative viability ([1]; first compound 3.162 µM) was 0.527. The relative viability (kb NB 142-70 + Olaparib; first compound 0.1 µM) was 0.506, the relative viability (kb NB 142-70 + Olaparib; first compound 1 µM) was 0.589 and the relative viability (kb NB 142-70 + Olaparib; first compound 3.162 µM) was 0.411. The relative viability ([2]; first compound 0.02 µM) was 1.02, the relative viability ([2]; first compound 0.06325 µM) was 0.988 and the relative viability ([2]; first compound 0.2 µM) was 1.02. The relative viability ([2]; first compound 0.6325 µM) was 1.11, the relative viability ([2]; first compound 2 µM) was 1.15 and the relative viability ([3]; first compound 0.02 µM) was 0.779. The relative viability ([3]; first compound 0.06325 µM) was 0.866, the relative viability ([3]; first compound 0.2 µM) was 0.889 and the relative viability ([3]; first compound 0.6325 µM) was 0.906. The relative viability ([3]; first compound 2 µM) was 0.885.
In the case of BEN, the relative viability (kb NB 142-70 + Dasatinib; first compound 0.1 µM) is reported as 0.307, the relative viability (kb NB 142-70 + Dasatinib; first compound 1 µM) is reported as 0.303 and the relative viability (kb NB 142-70 + Dasatinib; first compound 3.162 µM) is reported as 0.209. For the same cell line, the relative viability ([1]; first compound 0.1 µM) was 0.773, the relative viability ([1]; first compound 1 µM) was 0.761 and the relative viability ([1]; first compound 3.162 µM) was 0.575. For the same cell line, the relative viability (kb NB 142-70 + Olaparib; first compound 0.1 µM) was 1.09, the relative viability (kb NB 142-70 + Olaparib; first compound 1 µM) was 1.21 and the relative viability (kb NB 142-70 + Olaparib; first compound 3.162 µM) was 1.01. It also gave a relative viability ([2]; first compound 0.02 µM) of 0.738, a relative viability ([2]; first compound 0.06325 µM) of 1.11 and a relative viability ([2]; first compound 0.2 µM) of 0.701. For the same cell line, the relative viability ([2]; first compound 0.6325 µM) was 0.708, the relative viability ([2]; first compound 2 µM) was 0.542 and the relative viability ([3]; first compound 0.02 µM) was 0.923. For the same cell line, the relative viability ([3]; first compound 0.06325 µM) was 0.997, the relative viability ([3]; first compound 0.2 µM) was 0.837 and the relative viability ([3]; first compound 0.6325 µM) was 0.965. It also gave a relative viability ([3]; first compound 2 µM) of 0.9.
